Legend:
[1] = molecular target: T1, Transient receptor potential cation channel subfamily M member 8 (Homo sapiens, UniProt Q7Z2W7); assay: Agonist activity at TRPM8 (unknown origin) by fluorometric imaging plate reader analysis
[2] = molecular target: Transient receptor potential cation channel subfamily M member 8 (Mus musculus, UniProt Q8R4D5); assay: Agonist activity at mouse TRMP8 expressed in HEK293 cells; format: cell-based
[3] = molecular target: T1, Transient receptor potential cation channel subfamily M member 8; assay: Antagonist activity at TRPM8 (unknown origin)
[4] = molecular target: T1, Transient receptor potential cation channel subfamily M member 8; assay: Antagonist activity at human TRPM8 expressed in HEK293 cells; format: cell-based
[5] = molecular target: T1, Transient receptor potential cation channel subfamily M member 8; assay: Antagonist activity at human TRPM8 expressed in HEK293 cells assessed as reduction in menthol induced calcium influx; format: cell-based
[6] = molecular target: T1, Transient receptor potential cation channel subfamily M member 8; assay: Agonist activity at TRPM8 (unknown origin)
[7] = molecular target: Transient receptor potential cation channel subfamily A member 1 (Homo sapiens, UniProt O75762); assay: Agonist activity at TRPA1 (unknown origin)
[8] = molecular target: Transient receptor potential cation channel subfamily V member 1 (Homo sapiens, UniProt Q8NER1); assay: Modulation of TRPV1 (unknown origin) by fluorometric imaging plate reader analysis
Rattus norvegicus [9] = assay: Reversal of icilin induced behaviours in rat at 10 mg/kg, po relative to control; format: functional
Rattus norvegicus [10] = species: Rattus norvegicus; assay: Antihypersensitivity activity at rat assessed as reduction in pain relative to control; format: functional
[11] = molecular target: T1, Transient receptor potential cation channel subfamily M member 8; assay: Antagonist activity at human TRMP8 incubated for 24 hrs; format: cell-based, HEK293
[12] = molecular target: T1, Transient receptor potential cation channel subfamily M member 8; assay: Agonist activity at human TRMP8 expressed in HEK293 cells; format: cell-based
[13] = molecular target: Transient receptor potential cation channel subfamily M member 8 (Rattus norvegicus) (UniProt Q8R455); assay: In vivo antagonist activity at TRPM8 in po dosed rat assessed as shaking behaviour; format: functional, organism-based
Rattus norvegicus [14] = assay: Antihypersensitivity activity at icilin induced rat assessed as reduction in wet-dog shakes at 3 mg/kg relative to control; format: functional
[15] = molecular target: T1, Transient receptor potential cation channel subfamily M member 8; assay: […] activity at human TRMP8 expressed in HEK293 cells incubated for 24 hrs by HTS assay; format: cell-based
[16] = molecular target: T1, Transient receptor potential cation channel subfamily M member 8; assay: […] activity at human TRMP8 expressed in HEK293 cells measured after 24 hrs of menthol activation by patch clamp assay; format: cell-based
[17] = molecular target: T1, Transient receptor potential cation channel subfamily M member 8; assay: […] activity at human TRMP8 expressed in HEK293 cells measured after 24 hrs of cold activation by patch clamp assay; format: cell-based
Rattus norvegicus [18] = assay: Antihypersensitivity activity at carrageenan induced rat assessed as reduction in heat hypersensitivity at 30 mg/kg, po relative to control; format: functional
Rattus norvegicus [19] = assay: Antihypersensitivity activity at cfa induced rat assessed as thermal and mechanical hyperalgesia at 10 mg/kg, po relative to control; format: functional
Rattus norvegicus [20] = species: Rattus norvegicus; assay: Antihypersensitivity activity at rat assessed as reduction in wet-dog shakes relative to control; format: functional
Rattus norvegicus [21] = species: Rattus norvegicus; assay: Antihypersensitivity activity at rat assessed as cardiovascular pressor responses relative to control; format: functional
Rattus norvegicus [22] = assay: Antinociceptive activity at rat assessed as reduction in pain at 30 mg/kg, po relative to control; format: functional
[23] = molecular target: T1, Transient receptor potential cation channel subfamily M member 8; assay: Antagonist activity at human TRPM8 expressed in CHO cells; format: cell-based
Rattus norvegicus [24] = assay: Antihypersensitivity activity at rat assessed as reduction in wet-dog shakes at 1 mg/kg relative to control; format: functional
[25] = molecular target: T1, Transient receptor potential cation channel subfamily M member 8; assay: Antagonist activity at human TRPM8 expressed in […] induced HEK293 cells; format: cell-based
Rattus norvegicus [26] = assay: Reversal of icilin induced behaviours in rat at 30 mg/kg, po relative to control; format: functional
[27] = molecular target: T1, Transient receptor potential cation channel subfamily M member 8; assay: Agonist activity at human recombinant TRPM8
[28] = molecular target: T1, Transient receptor potential cation channel subfamily M member 8; assay: Antagonist activity at TRPM8 (unknown origin) by fluorescence based assay

T1 sequence (Q7Z2W7 whole entry): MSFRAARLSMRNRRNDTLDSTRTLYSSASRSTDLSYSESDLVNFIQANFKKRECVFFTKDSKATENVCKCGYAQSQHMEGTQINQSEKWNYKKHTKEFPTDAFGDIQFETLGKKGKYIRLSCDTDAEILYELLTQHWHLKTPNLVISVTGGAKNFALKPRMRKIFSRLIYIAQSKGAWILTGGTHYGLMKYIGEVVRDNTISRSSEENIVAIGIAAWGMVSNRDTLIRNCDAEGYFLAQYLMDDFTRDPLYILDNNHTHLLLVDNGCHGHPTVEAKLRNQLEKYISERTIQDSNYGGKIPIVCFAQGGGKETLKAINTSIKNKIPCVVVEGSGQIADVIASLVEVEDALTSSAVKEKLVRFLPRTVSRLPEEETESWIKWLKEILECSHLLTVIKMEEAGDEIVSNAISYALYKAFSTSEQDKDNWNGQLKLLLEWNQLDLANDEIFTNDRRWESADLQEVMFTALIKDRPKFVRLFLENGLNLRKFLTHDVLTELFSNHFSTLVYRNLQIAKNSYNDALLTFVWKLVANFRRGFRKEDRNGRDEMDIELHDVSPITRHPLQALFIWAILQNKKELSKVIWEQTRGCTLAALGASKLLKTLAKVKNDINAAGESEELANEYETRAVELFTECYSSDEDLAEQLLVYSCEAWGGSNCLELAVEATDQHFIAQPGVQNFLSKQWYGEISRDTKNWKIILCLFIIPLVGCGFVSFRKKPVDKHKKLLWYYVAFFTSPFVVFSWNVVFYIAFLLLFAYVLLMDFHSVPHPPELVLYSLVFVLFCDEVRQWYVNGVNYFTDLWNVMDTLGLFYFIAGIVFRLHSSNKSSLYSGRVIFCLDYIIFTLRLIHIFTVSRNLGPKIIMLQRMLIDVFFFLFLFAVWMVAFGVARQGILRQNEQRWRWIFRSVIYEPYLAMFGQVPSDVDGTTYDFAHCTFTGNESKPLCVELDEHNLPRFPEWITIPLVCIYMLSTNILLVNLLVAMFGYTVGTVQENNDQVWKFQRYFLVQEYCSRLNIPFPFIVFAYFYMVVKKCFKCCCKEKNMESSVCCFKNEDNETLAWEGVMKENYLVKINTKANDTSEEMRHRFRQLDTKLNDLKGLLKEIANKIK
Transient receptor potential cation channel subfamily M member 8 (Mus musculus, UniProt Q8R4D5), sequence (Q8R4D5 whole entry): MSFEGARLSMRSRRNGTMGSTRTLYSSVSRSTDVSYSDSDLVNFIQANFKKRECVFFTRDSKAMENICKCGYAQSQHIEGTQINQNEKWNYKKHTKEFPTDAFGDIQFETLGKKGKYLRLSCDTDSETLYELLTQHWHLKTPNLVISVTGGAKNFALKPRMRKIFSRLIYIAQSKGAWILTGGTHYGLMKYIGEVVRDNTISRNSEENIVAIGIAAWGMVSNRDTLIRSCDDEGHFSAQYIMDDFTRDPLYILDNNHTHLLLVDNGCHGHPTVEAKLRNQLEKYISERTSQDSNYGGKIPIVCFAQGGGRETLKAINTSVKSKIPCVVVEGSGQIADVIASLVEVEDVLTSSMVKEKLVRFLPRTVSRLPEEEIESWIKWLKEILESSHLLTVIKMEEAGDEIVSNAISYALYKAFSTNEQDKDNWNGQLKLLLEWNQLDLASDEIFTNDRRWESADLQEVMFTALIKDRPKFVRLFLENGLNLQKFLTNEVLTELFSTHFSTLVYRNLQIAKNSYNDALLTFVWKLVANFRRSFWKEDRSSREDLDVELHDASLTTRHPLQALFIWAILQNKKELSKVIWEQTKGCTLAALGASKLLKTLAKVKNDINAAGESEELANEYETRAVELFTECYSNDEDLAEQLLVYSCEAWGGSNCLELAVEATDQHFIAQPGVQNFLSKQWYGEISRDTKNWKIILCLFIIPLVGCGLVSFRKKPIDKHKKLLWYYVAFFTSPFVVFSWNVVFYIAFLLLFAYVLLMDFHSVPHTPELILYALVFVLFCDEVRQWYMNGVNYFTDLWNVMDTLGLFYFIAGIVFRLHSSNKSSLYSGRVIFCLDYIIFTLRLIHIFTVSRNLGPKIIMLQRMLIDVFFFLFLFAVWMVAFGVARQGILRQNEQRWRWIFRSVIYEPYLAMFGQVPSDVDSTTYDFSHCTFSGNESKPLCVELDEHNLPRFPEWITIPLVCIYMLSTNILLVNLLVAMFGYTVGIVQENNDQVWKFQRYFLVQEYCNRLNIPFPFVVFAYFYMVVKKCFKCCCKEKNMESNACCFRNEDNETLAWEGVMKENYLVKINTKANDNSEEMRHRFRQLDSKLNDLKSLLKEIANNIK
Transient receptor potential cation channel subfamily V member 1, sequence (Q8NER1 whole entry): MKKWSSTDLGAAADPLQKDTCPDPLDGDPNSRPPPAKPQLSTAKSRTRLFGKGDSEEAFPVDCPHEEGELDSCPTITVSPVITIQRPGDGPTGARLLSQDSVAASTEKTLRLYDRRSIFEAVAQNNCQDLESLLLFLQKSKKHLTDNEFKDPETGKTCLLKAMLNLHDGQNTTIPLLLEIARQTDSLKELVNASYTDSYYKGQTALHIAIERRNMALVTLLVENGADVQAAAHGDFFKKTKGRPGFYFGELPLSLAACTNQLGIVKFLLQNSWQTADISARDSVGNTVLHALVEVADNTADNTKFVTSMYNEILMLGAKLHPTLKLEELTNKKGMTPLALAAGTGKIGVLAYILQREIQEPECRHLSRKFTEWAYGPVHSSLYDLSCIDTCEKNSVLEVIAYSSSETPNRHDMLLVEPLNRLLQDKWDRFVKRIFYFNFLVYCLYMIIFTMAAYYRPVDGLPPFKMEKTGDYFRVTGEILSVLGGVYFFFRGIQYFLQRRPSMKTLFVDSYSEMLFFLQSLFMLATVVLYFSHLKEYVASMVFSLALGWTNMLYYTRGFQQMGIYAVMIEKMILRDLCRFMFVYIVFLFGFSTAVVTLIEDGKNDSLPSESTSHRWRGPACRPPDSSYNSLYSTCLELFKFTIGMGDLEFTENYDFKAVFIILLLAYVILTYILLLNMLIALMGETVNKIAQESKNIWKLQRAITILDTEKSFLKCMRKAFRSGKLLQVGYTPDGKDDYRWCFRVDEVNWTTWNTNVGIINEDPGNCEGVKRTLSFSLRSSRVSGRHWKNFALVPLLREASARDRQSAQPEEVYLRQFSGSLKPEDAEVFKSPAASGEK
Transient receptor potential cation channel subfamily M member 8 (Rattus norvegicus), sequence (Q8R455 whole entry, looked up): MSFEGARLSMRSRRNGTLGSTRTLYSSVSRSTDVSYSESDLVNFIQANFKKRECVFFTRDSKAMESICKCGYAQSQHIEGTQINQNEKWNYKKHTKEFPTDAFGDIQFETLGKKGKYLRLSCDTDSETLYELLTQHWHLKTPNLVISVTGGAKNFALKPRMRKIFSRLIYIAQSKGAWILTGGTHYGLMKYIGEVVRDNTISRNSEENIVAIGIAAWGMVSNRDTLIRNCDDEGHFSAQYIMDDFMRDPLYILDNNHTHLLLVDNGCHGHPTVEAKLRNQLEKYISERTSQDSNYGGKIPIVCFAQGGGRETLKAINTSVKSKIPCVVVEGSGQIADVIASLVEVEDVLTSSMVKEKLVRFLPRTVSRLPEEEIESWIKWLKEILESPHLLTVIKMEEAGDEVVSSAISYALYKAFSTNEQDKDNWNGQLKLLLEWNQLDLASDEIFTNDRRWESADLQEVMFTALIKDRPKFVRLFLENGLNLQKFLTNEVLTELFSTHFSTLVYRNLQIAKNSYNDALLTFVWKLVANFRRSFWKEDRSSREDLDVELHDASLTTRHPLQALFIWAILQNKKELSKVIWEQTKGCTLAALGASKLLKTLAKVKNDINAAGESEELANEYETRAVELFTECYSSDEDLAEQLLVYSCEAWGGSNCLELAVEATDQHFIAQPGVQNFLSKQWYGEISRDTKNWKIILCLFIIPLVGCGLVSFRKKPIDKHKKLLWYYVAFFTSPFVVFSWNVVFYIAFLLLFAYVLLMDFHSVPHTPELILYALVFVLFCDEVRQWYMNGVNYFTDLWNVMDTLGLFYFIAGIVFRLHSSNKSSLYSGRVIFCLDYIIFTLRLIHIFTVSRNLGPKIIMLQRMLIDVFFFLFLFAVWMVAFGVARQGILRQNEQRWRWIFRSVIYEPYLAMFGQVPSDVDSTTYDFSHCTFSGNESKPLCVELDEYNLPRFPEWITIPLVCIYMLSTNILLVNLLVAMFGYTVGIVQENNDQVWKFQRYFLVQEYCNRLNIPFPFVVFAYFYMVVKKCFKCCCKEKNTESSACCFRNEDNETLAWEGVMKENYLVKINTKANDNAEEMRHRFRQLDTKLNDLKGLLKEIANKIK

Compound COc1ccc(NC(=O)[C@@H]2C[C@H](C)CC[C@H]2C(C)C)c(NC(=O)[C@@H](C)N)c1 has an EC50 [1] of 3 µM.
CC12CCC(CC1)C(C)(C)O2 [EUCALYPTOL] gave an EC50 [2] of 7000 µM.
With C[C@H](N)[C@H](O)C/C=C\C/C=C\C/C=C\C/C=C\C/C=C\C/C=C\CCCCCC[C@@H](O)[C@H](C)N the IC50 [3] was 6 µM.
For COc1cc(CN(CCN)C(=O)NC(C)c2ccccc2)ccc1OCc1ccccc1 (stereo not drawn), the IC50 [4] was 0.05 nM.
With Clc1ccc(COC(Cn2ccnc2)c2ccc(Cl)cc2Cl)cc1 (stereo not drawn) [ECONAZOLE] the IC50 [3] was 0.42 µM.
CC(C)[C@@H]1CC[C@@H](C)C[C@H]1C(=O)NCC(NC(=O)[C@H](C)N)c1ccccc1 (stereo partly drawn) was tested, and the EC50 [1] was < 5 µM.
In the case of Cc1ccc2nc(C(F)(F)F)n(-c3ccc(C(=O)CN4C(=O)NC5(CCC(F)(F)CC5)C4=O)cc3)c2n1, the IC50 [5] is reported as < 0.01 µM.
Clc1ccc(-c2nnc(N3CCOCC3)n2-c2ccccc2)cc1 gave an EC50 [6] of 45 µM and an EC50 [7] of 4 µM.
c1ccc(CN(CCc2c[nH]c3ccccc23)Cc2ccccc2)cc1 was tested, and the IC50 [8] was 0.035 µM and the IC50 [3] was 0.8 µM.
In the case of FC(F)(F)c1ccccc1-c1cc(C(F)(F)F)c2[nH]c(C3=NOC4(CCCCC4)C3)nc2c1, the Activity (Rattus norvegicus [9]) is reported as 98% and the “inhibition (INH)” value (Rattus norvegicus [10]) is reported as 83%.
With CCCCCc1cc(O)c2c(c1)OC(C)(C)[C@@H]1CCC(C)=C[C@@H]21 [DRONABINOL] the IC50 [3] was 0.16 µM.
Compound COc1ccc(NC(=O)[C@@H]2C[C@H](C)CC[C@H]2C(C)C)cc1 [ACOLTREMON] has an EC50 [1] of 12 µM.
CCCCC/C=C/C/C=C\C/C=C/C/C=C/CCCC(=O)NCCc1ccc(O)c(O)c1 showed an IC50 [3] of 0.7 µM.
Work on C=C(C)[C@@H]1CCC(C)=C[C@H]1c1c(O)cc(CCCCC)cc1O [CANNABIDIOL] yielded an IC50 [3] of 0.06 µM.
Work on CCCCCc1cc2c(c(O)c1C(=O)O)[C@@H]1C=C(C)CC[C@H]1C(C)(C)O2 [DELTA9-TETRAHYDROCANNABINOLIC ACID A] yielded an IC50 [3] of 0.15 µM.
CCn1c(N(Cc2ccc(C(F)(F)F)cc2)S(=O)(=O)c2ccccc2)nc2cc(F)ccc21 was tested, and the IC50 [11] was 0.006 µM.
CCCCCc1cc(O)c(C/C=C(\C)CCC=C(C)C)c(O)c1 [CANNABIGEROL] showed an IC50 [3] of 0.16 µM.
C=CCc1ccc(O)c(OC)c1 [EUGENOL] showed an EC50 [12] of 66 µM.
Work on COc1ccc(CCCOC(Cn2ccnc2)c2ccc(OC)cc2)cc1 (stereo not drawn) yielded an IC50 [3] of 0.8 µM.
CC(C)[C@@H]1CC[C@@H](C)C[C@H]1C(=O)Nc1ccc(S(=O)(=O)Nc2ncccn2)cc1 was tested, and the EC50 [1] was 4 µM.
Compound COc1cc(CNC(=O)CCCC/C=C/C(C)C)ccc1O [CAPSAICIN] has an IC50 [3] of 1 µM.
For COc1cc(CN(CCN)c2nc3ccccc3s2)ccc1OCc1ccccc1F, the IC50 [3] was < 0.02 µM.
In the case of CCn1/c(=N/S(=O)(=O)c2ccccc2)n(Cc2ccc(C(F)(F)F)c(F)c2)c2cc(C(F)(F)F)ccc21, the IC50 [11] is reported as 0.005 µM.
With CC(C)=CCC/C(C)=C/CO [GERANIOL] the EC50 [2] was 6000 µM.
CC(C)[C@@H]1CC[C@@H](C)C[C@H]1OC(=O)[C@@H](C)O was tested, and the EC50 [1] was 160 µM.
With O=C(O)c1ccc(S(=O)(=O)N(Cc2ccc(OC(F)(F)F)cc2)c2ncc(C(F)(F)F)cc2Cl)cc1 the ED50 [13] was 0.65 mg/kg.
COc1ccccc1C(=O)N([C@H]1CCc2c(F)cc(Cl)cc21)[C@@H](C(N)=O)c1ccccc1 gave an inhibition in vivo at 3 mg/kg (Rattus norvegicus [14]) of 100%.
In the case of Clc1ccccc1C(c1ccccc1)(c1ccccc1)n1ccnc1 [CLOTRIMAZOLE], the IC50 [3] is reported as 8 µM.
With CCCCC/C=C/C/C=C\C/C=C/C/C=C/CCCC(=O)NCCO the IC50 [3] was 0.15 µM.
Compound Cc1c(N(Cc2ccc(F)c(C(F)(F)F)c2)S(=O)(=O)N2CCC(C(=O)O)CC2)sc2ccccc12 has an IC50 [15] of 0.026 µM.
With Cc1cc(NC(C)C)no1 the EC50 [6] was 0.1 µM.
C=CCc1cc(OC)c(OC(C)C(O[C@@H]2C[C@H](C)CC[C@H]2C(C)C)c2ccc(OC)c(OC)c2)c(OC)c1 (stereo partly drawn) showed an EC50 [1] of 10 µM.
For Cc1c(N(Cc2ccc(F)c(C(F)(F)F)c2)S(=O)(=O)c2ccc(C(=O)O)cc2)sc2ccccc12, the IC50 [16] was 0.0011 µM, the IC50 [17] was 0.0023 µM and the inhibition in vivo at 30 mg/kg (Rattus norvegicus [18]) was 64%. The Activity (Rattus norvegicus [19]) was 91%, the ED50 (Rattus norvegicus [20]) was 2.5 mg/kg and the “inhibition (INH)” value (Rattus norvegicus [21]) was 75%. The inhibition in vivo at 30 mg/kg (Rattus norvegicus [22]) was 69%.
Cc1c(N(Cc2ccc(OC(F)(F)F)cc2)S(=O)(=O)CCN2CCC(c3ccccc3)CC2)sc2ccccc12 was tested, and the IC50 [15] was 0.026 µM.
COc1ccc2c(c1)n(CCN)c(=O)n2C(=O)[C@@H]1C[C@H](C)CC[C@H]1C(C)C was tested, and the EC50 [1] was < 5 µM.
For O=C(N[C@]1(c2ccc(OC(F)(F)F)cc2)CCOc2cccnc21)c1ccc2[nH]cnc2c1, the IC50 [23] was 0.004 µM and the inhibition in vivo at 1 mg/kg (Rattus norvegicus [24]) was > 90%.
NCCc1c[nH]c2ccc(Oc3ccccc3)cc12 gave an IC50 [25] of 0.34 µM.
COc1nc(-c2ccccc2Cl)cc2nc(-c3c(Cl)c(C(C)(C)C)nn3C)[nH]c12 showed an IC50 [11] of 0.0035 µM.
With CC(C)OP(=O)(OC(C)C)[C@@H](Cc1ccc(F)c(C(F)(F)F)c1)c1sc2ccccc2c1Br the IC50 [15] was 0.009 µM and the Activity (Rattus norvegicus [26]) was 80%.
Work on C=C(C)[C@]12C[C@@H](C)[C@@]34OC(Cc5ccccc5)(O[C@@H]1C3C=C(COC(=O)Cc1ccc(O)c(OC)c1)C[C@]1(O)C(=O)C(C)=C[C@@H]41)O2 (stereo partly drawn) yielded an IC50 [3] of 0.15 µM.
In the case of COc1cnc(-c2ccccn2)nc1CC(C)C, the EC50 [27] is reported as 0.1 µM.
COC(=O)C(NCc1ccccc1)[C@H](Cc1ccccc1)NC(=O)OCc1ccccc1 (stereo partly drawn) gave an IC50 [28] of 3 µM.

— ChEMBL document CHEMBL5252528, “Transient Receptor Potential Melastatin 8 Channel (TRPM8) Modulation: Cool Entryway for Treating Pain and Cancer” (J Med Chem, 2016)
